Measurements published in patent US20250250269A1, “HETEROCYCLIC GLP-1 AGONISTS” (Gasherbrum Bio, Inc., priority 2022, published 2025).
pEC50: −log10 of the molar value.

Biological target: T1, GLP-1 Receptor (Homo sapiens, UniProt P43220)
T1 construct: host or cells: HEK293/CRE-Luc (HEK293/GLP1R/CRE-LUC)
Assay: GLP-1R agonist cAMP stimulation assay (HEK293/GLP1R/CRE-LUC cells, Cisbio cAMP dynamic 2 kit)
Format: cell-based
Settings: HEK293/CRE-Luc cells stably expressing the GLP-1 Receptor, 30 min at 37° C.
In short: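 HEK293 CRE-Luc cells stably expressing GLP-1R (1000 cells/well) treated with compounds in ½-log dilution for 30 min at 37 °C in DPBS with 0.5 mM IBMX and 0.1% BSA. cAMP quantified by HTRF (cAMP-d2/anti-cAMP cryptate, 1 h, room temperature), fluorescence read at 665 and 615 nm.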

T1 sequence (P43220 24-463, species assumed): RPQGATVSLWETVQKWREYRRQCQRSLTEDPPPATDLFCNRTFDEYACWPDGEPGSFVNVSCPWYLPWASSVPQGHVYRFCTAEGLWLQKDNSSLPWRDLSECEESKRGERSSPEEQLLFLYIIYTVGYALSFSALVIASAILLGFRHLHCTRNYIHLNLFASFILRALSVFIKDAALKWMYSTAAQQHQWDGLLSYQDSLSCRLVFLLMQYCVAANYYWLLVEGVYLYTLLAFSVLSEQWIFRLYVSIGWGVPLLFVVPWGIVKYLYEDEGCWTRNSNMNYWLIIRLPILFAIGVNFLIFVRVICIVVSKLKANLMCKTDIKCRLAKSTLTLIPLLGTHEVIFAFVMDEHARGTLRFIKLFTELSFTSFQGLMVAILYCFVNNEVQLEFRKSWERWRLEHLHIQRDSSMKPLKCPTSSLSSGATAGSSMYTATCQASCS

Row | pEC50 | Compound
1 | > 9.00 | FC(F)(F)Oc1cccc(COc2cccc(C3CCN(Cc4nc5cc(-c6nnc(C(F)(F)F)[nH]6)ncc5n4C[C@@H]4CCO4)CC3)n2)c1 [Compound 11, (S)-3-(oxetan-2-ylmethyl)-2-((4-(6-((3-(trifluoromethoxy)benzyl)oxy)pyridin-2-yl)piperidin-1-yl)methyl)-6-(5-(trifluoromethyl)-4H-1,2,4-triazol-3-yl)-3H-imidazo[4,5-c]pyridine]
2 | > 9.00 | Cc1c(Cl)ccc(COc2cccc(C3CCN(Cc4nc5cc(-c6nnc(C(F)(F)F)[nH]6)ncc5n4C[C@@H]4CCO4)CC3)n2)c1F [Compound 4, 2-[(4-chloro-2-fluoro-3-methylphenyl)methoxy]-6-{1-[(3-{[(2S)-oxetan-2-yl]methyl}-6-[5-(trifluoromethyl)-4H-1,2,4-triazol-3-yl]-3H-imidazo[4,5-c]pyridin-2-yl)methyl]piperidin-4-yl}pyridine]
3 | > 9.00 | Fc1ccc(COc2cccc(C3CCN(Cc4nc5cc(-c6nnc(C(F)(F)F)[nH]6)ncc5n4C[C@@H]4CCO4)CC3)n2)nc1OC(F)F [Compound 14, (S)-2-((4-(6-((6-(difluoromethoxy)-5-fluoropyridin-2-yl)methoxy)pyridin-2-yl)piperidin-1-yl)methyl)-3-(oxetan-2-ylmethyl)-6-(5-(trifluoromethyl)-4H-1,2,4-triazol-3-yl)-3H-imidazo[4,5-c]pyridine]
4 | > 9.00 | C[C@]1(c2ccc(Cl)cn2)Oc2cccc([C@@H]3CCN(Cc4nc5cc(-c6nnc(C(F)(F)F)[nH]6)ncc5n4C[C@@H]4CCO4)C[C@H]3F)c2O1 (single isomer, unassigned) [Compound 63]
5 | > 9.00 | [2H]C1([2H])Oc2cccc(COc3cccc(C4CCN(Cc5nc6cc(-c7nnc(C(F)(F)F)[nH]7)ncc6n5C[C@@H]5CCO5)CC4)n3)c2O1 [Compound 19, (S)-2-((4-(6-((benzo[d][1,3]dioxol-4-yl-2,2-d2)methoxy)pyridin-2-yl)piperidin-1-yl)methyl)-3-(oxetan-2-ylmethyl)-6-(5-(trifluoromethyl)-4H-1,2,4-triazol-3-yl)-3H-imidazo[4,5-c]pyridine]
6 | > 9.00 | C[C@]1(c2ccc(Cl)cc2F)Oc2cccc(C3CCN(Cc4nc5cc(C(=O)O)ncc5n4C[C@@H]4CCO4)CC3)c2O1 [Compound 23, 2-((4-((S)-2-(4-chloro-2-fluorophenyl)-2-methylbenzo[d][1,3]dioxol-4-yl)piperidin-1-yl)methyl)-3-(((S)-oxetan-2-yl)methyl)-3H-imidazo[4,5-c]pyridine-6-carboxylic acid]
7 | > 9.00 | C[C@]1(c2ccc(Cl)cc2F)Oc2cccc(C3=CCN(Cc4nc5cc(-c6nnc(C(F)(F)F)[nH]6)ncc5n4C[C@@H]4CCO4)CC3)c2O1 [Compound 44, 2-((4-((S)-2-(4-chloro-2-fluorophenyl)-2-methylbenzo[d][1,3]dioxol-4-yl)-3,6-dihydropyridin-1(2H)-yl)methyl)-3-(((S)-oxetan-2-yl)methyl)-6-(5-(trifluoromethyl)-4H-1,2,4-triazol-3-yl)-3H-imidazo[4,5-c]pyridine]
8 | > 9.00 | O=C(O)c1cc2nc(CN3CCC(c4cccc(OCc5ccc(Cl)cc5F)n4)CC3)n(C[C@@H]3CCO3)c2cn1 [Compound 28, (S)-2-((4-(6-((4-chloro-2-fluorobenzyl)oxy)pyridin-2-yl)piperidin-1-yl)methyl)-3-(oxetan-2-ylmethyl)-3H-imidazo[4,5-c]pyridine-6-carboxylic acid]
9 | 7.00 to 9.00 | Cc1nnc(-c2cc(F)c3c(c2)nc(CN2CC=C(c4cccc5c4OC(C)(c4ccc(Cl)cc4F)O5)CC2)n3C[C@@H]2CCO2)[nH]1 (stereo partly drawn) [Compound 43, 2-((4-(2-(4-chloro-2-fluorophenyl)-2-methylbenzo[d][1,3]dioxol-4-yl)-3,6-dihydropyridin-1(2H)-yl)methyl)-7-fluoro-5-(5-methyl-4H-1,2,4-triazol-3-yl)-1-(((S)-oxetan-2-yl)methyl)-1H-benzo[d]imidazole]
10 | > 9.00 | Fc1cc(Cl)ccc1COc1cccc([C@H]2CCN(Cc3nc4cc(-c5nnc(C(F)(F)F)[nH]5)ncc4n3C[C@@H]3CCO3)C[C@@H]2F)n1 (single isomer, unassigned) [Compound 58]
